# Data: patent EP1027361B1, “6,11-BRIDGED ERYTHROMYCIN DERIVATIVES” (Abbott Laboratories, priority 1997, dated 1999)
# Assays:
# Assay in all cases: in vitro antibacterial activity, agar dilution MIC
# Assay type in all cases: cell-based
# [1] = test system: Escherichia coli JUHL; conditions: organism code QQ, BHI agar, 35-37 °C, 20 to 24 hours
# Description: (§1) Erythromycin A was used for this purpose.
# (§2) After incubation, each plate was visually inspected.
# [2] = test system: Streptococcus Pheumoniae GYR 1171; conditions: organism code YY, BHI agar, 35-37 °C, 20 to 24 hours
# Description: as §1, §2
# [3] = test system: Escherichia coli SS; conditions: organism code RR, BHI agar, 35-37 °C, 20 to 24 hours
# Description: as §1, §2
# [4] = test system: Staphylococcus aureus NCTC10649M; conditions: organism code EE, BHI agar, 35-37 °C, 20 to 24 hours
# Description: as §1, §2
# [5] = test system: Staphylococcus aureus CMX 642A; conditions: organism code DD, BHI agar, 35-37 °C, 20 to 24 hours
# Description: as §1, §2
# [6] = test system: Streptococcus Pheumoniae 5649; conditions: organism code ZZA, BHI agar, 35-37 °C, 20 to 24 hours
# Description: as §1, §2
# [7] = test system: Micrococcus luteus ATCC 9341; conditions: organism code OO, BHI agar, 35-37 °C, 20 to 24 hours
# Description: as §1, §2
# [8] = test system: Staphylococcus epidermidis 3519; conditions: organism code HH, BHI agar, 35-37 °C, 20 to 24 hours
# Description: as §1, §2
# [9] = test system: Enterococcus faecium ATCC 8043; conditions: organism code II, BHI agar, 35-37 °C, 20 to 24 hours
# Description: as §1, §2
# [10] = test system: Nocardia Asteroides ATCC9970; conditions: organism code VV, BHI agar, 35-37 °C, 20 to 24 hours
# Description: as §1, §2
# [11] = test system: Haemophilis Influenzae DILL AMP R; conditions: organism code WW, BHI agar, 35-37 °C, 20 to 24 hours
# Description: as §1, §2
# [12] = test system: Staphylococcus aureus CMX 553; conditions: organism code FF, BHI agar, 35-37 °C, 20 to 24 hours
# Description: as §1, §2
# [13] = test system: Micrococcus luteus ATCC 4698; conditions: organism code PP, BHI agar, 35-37 °C, 20 to 24 hours
# Description: as §1, §2
# [14] = test system: Streptococcus Pheumoniae ATCC6303; set-up: unit not given here; conditions: organism code XX, BHI agar, 35-37 °C, 20 to 24 hours
# Description: as §1, §2
# [15] = test system: Streptococcus pyogenes EES61; set-up: unit not given here; conditions: organism code LL, BHI agar, 35-37 °C, 20 to 24 hours
# Description: as §1, §2
# [16] = test system: Streptococcus bovis A-5169; set-up: unit not given here; conditions: organism code JJ, BHI agar, 35-37 °C, 20 to 24 hours
# Description: as §1, §2
# [17] = test system: Staphylococcus aureus ATCC 6538P; set-up: unit not given here; conditions: organism code AA, BHI agar, 35-37 °C, 20 to 24 hours
# Description: as §1, §2
# [18] = test system: Streptococcus agalactiae CMX 508; set-up: unit not given here; conditions: organism code KK, BHI agar, 35-37 °C, 20 to 24 hours
# Description: as §1, §2
# [19] = test system: Candida albicans CCH 442; conditions: organism code TT, BHI agar, 35-37 °C, 20 to 24 hours
# Description: (§3) Representative compounds of the present invention were assayed in vitro for antibacterial activity as follows: Twelve petri dishes containing successive aqueous dilutions of the test compound mixed with 10 mL of sterilized Brain Heart Infusion (BHI) agar (Difco 0418-01-5) were prepared. Each plate was inoculated with 1:100 (or 1:10 for slow-growing strains, such as Micrococcus and Streptococcus) dilutions of up to 32 different microorganisms, using a Steers replicator block. […] In addition, a control plate, using BHI agar containing no test compound, was prepared and incubated at the beginning and end of each test
# (§4) An additional plate containing a compound having known susceptibility patterns for the organisms being tested and belonging to the same antibiotic class as the test compound was also prepared and incubated as a further control, as well as to provide test-to-test comparability.
# (§5) After incubation, each plate was visually inspected. The minimum inhibitory concentration (MIC) was defined as the lowest concentration of drug yielding no growth, a slight haze, or sparsely isolated colonies on the inoculum spot as compared to the growth control.
# [20] = test system: Escherichia coli DC-2; conditions: organism code SS, BHI agar, 35-37 °C, 20 to 24 hours
# Description: as §3, §4, §5
# [21] = test system: Staphylococcus aureus 1775; conditions: organism code GG, BHI agar, 35-37 °C, 20 to 24 hours
# Description: as §3, §4, §5
# [22] = test system: Streptococcus pyogenes PIU 2548; conditions: organism code NN, BHI agar, 35-37 °C, 20 to 24 hours
# Description: as §3, §4, §5
# [23] = test system: Streptococcus pyogenes 930; conditions: organism code MM, BHI agar, 35-37 °C, 20 to 24 hours
# Description: as §3, §4, §5
# [24] = test system: Staphylococcus aureus A-5278; conditions: organism code CC, BHI agar, 35-37 °C, 20 to 24 hours
# Description: as §3, §4, §5
# [25] = test system: Staphylococcus aureus A5177; set-up: unit not given here; conditions: organism code BB, BHI agar, 35-37 °C, 20 to 24 hours
# Description: as §3, §4, §5
# [26] = test system: Mycobacterium smegmatis ATCC 114; set-up: unit not given here; conditions: organism code UU, BHI agar, 35-37 °C, 20 to 24 hours
# Description: as §3, §4, §5
# [27] = test system: Streptococcus Pheumoniae 5979; conditions: organism code ZZ, BHI agar, 35-37 °C, 20 to 24 hours
# Description: as §3, §4, §5
compound,measurement,setting,value
"CC[C@H]1OC(=O)[C@H](C)[C@@H](O[C@H]2C[C@@](C)(OC)[C@@H](O)[C@H](C)O2)[C@H](C)[C@@H](O[C@@H]2O[C@H](C)C[C@H](N(C)C)[C@H]2O)[C@](C)(O)C[C@@H](C)C(=O)[C@H](C)[C@@H](O)[C@]1(C)O [Ery. A, Erythromycin A, reference compound]",minimum inhibitory concentration (MIC),[1],>100
same,minimum inhibitory concentration (MIC),[2],0.06
same,minimum inhibitory concentration (MIC),[3],0.78
same,minimum inhibitory concentration (MIC),[4],0.39
same,minimum inhibitory concentration (MIC),[5],0.39
same,minimum inhibitory concentration (MIC),[6],16
same,minimum inhibitory concentration (MIC),[7],0.05
same,minimum inhibitory concentration (MIC),[8],0.39
same,minimum inhibitory concentration (MIC),[9],0.05
same,minimum inhibitory concentration (MIC),[10],0.1
same,minimum inhibitory concentration (MIC),[11],4
same,minimum inhibitory concentration (MIC),[12],0.39
same,minimum inhibitory concentration (MIC),[13],0.2
same,minimum inhibitory concentration (MIC),[14],0.06
same,minimum inhibitory concentration (MIC),[15],0.05
same,minimum inhibitory concentration (MIC),[16],0.02
same,minimum inhibitory concentration (MIC),[17],0.2
same,minimum inhibitory concentration (MIC),[18],0.05
same,minimum inhibitory concentration (MIC),[19],>100
same,minimum inhibitory concentration (MIC),[20],>100
same,minimum inhibitory concentration (MIC),[21],>100
same,minimum inhibitory concentration (MIC),[22],6.2
same,minimum inhibitory concentration (MIC),[23],>100
same,minimum inhibitory concentration (MIC),[24],>100
same,minimum inhibitory concentration (MIC),[25],3.1
same,minimum inhibitory concentration (MIC),[26],3.1
"CC[C@H]1OC(=O)[C@H](C)C(=O)[C@H](C)[C@@H](O[C@@H]2O[C@H](C)C[C@H](N(C)C)[C@H]2O)[C@@]2(C)C[C@@H](C)C(=O)[C@H](C)[C@H]3N(CCOCc4ccccc4C=CCO2)C(=O)O[C@]13C [Example 12, Compound of Formula (II), R^p is H, m is 2, A is -O-, B is-(CH2)q-, q is 1, D is 1,2-phenylene, E is-(CH2)r-CH=CH-, r is 0, n is 1]",minimum inhibitory concentration (MIC),[1],>100
same,minimum inhibitory concentration (MIC),[2],0.125
same,minimum inhibitory concentration (MIC),[3],1.56
same,minimum inhibitory concentration (MIC),[4],0.78
same,minimum inhibitory concentration (MIC),[5],0.78
same,minimum inhibitory concentration (MIC),[6],1
same,minimum inhibitory concentration (MIC),[7],0.2
same,minimum inhibitory concentration (MIC),[8],0.78
same,minimum inhibitory concentration (MIC),[9],0.1
same,minimum inhibitory concentration (MIC),[10],0.78
same,minimum inhibitory concentration (MIC),[11],16
same,minimum inhibitory concentration (MIC),[12],0.78
same,minimum inhibitory concentration (MIC),[13],0.39
same,minimum inhibitory concentration (MIC),[14],0.25
same,minimum inhibitory concentration (MIC),[15],0.05
same,minimum inhibitory concentration (MIC),[16],0.05
same,minimum inhibitory concentration (MIC),[17],0.78
same,minimum inhibitory concentration (MIC),[18],0.1
same,minimum inhibitory concentration (MIC),[19],>100
same,minimum inhibitory concentration (MIC),[20],>100
same,minimum inhibitory concentration (MIC),[21],>100
same,minimum inhibitory concentration (MIC),[22],0.39
same,minimum inhibitory concentration (MIC),[23],50
same,minimum inhibitory concentration (MIC),[24],>100
same,minimum inhibitory concentration (MIC),[27],128
same,minimum inhibitory concentration (MIC),[25],0.78
same,minimum inhibitory concentration (MIC),[26],0.78
"CC[C@H]1OC(=O)[C@H](C)[C@@H](O[C@H]2C[C@@](C)(OC)[C@@H](O)[C@H](C)O2)[C@H](C)[C@@H](O[C@@H]2O[C@H](C)C[C@H](N(C)C)[C@H]2O)[C@@]2(C)C[C@@H](C)C(=O)[C@H](C)[C@H]3N(CCNC(=O)c4ccccc4C=CCO2)C(=O)O[C@]13C [Example 4, Compound of Formula (I), 2'-R^p is H, 4""-R^p is H, m is 2, A is NH, B is -C(O)-(CH2)q-, q is 0, D is 1,2-phenylene, E is-(CH2)r-CH=CH-, r is 0, n is 1]",minimum inhibitory concentration (MIC),[1],100
same,minimum inhibitory concentration (MIC),[2],0.03
same,minimum inhibitory concentration (MIC),[3],6.2
same,minimum inhibitory concentration (MIC),[5],1.56
same,minimum inhibitory concentration (MIC),[6],16
same,minimum inhibitory concentration (MIC),[7],0.2
same,minimum inhibitory concentration (MIC),[8],1.56
same,minimum inhibitory concentration (MIC),[9],0.39
same,minimum inhibitory concentration (MIC),[10],0.2
same,minimum inhibitory concentration (MIC),[11],16
same,minimum inhibitory concentration (MIC),[12],1.56
same,minimum inhibitory concentration (MIC),[13],1.56
same,minimum inhibitory concentration (MIC),[14],0.03
same,minimum inhibitory concentration (MIC),[15],0.39
same,minimum inhibitory concentration (MIC),[16],0.2
same,minimum inhibitory concentration (MIC),[17],1.56
same,minimum inhibitory concentration (MIC),[18],0.2
same,minimum inhibitory concentration (MIC),[19],>100
same,minimum inhibitory concentration (MIC),[20],>100
same,minimum inhibitory concentration (MIC),[21],>100
same,minimum inhibitory concentration (MIC),[22],12.5
same,minimum inhibitory concentration (MIC),[23],>100
same,minimum inhibitory concentration (MIC),[24],>100
same,minimum inhibitory concentration (MIC),[27],>128
same,minimum inhibitory concentration (MIC),[25],25
same,minimum inhibitory concentration (MIC),[26],3.1
"CC[C@H]1OC(=O)[C@H](C)[C@@H](O[C@H]2C[C@@](C)(OC)[C@@H](O)[C@H](C)O2)[C@H](C)[C@@H](O[C@@H]2O[C@H](C)C[C@H](N(C)C)[C@H]2O)[C@@]2(C)C[C@@H](C)C(=O)[C@H](C)[C@H]3N(CCNCc4cccc(c4)C=CCO2)C(=O)O[C@]13C [Example 11, Compound of Formula (I), 2'-R^p is H, 4""-R^p is H, m is 2, A is NH, B is-(CH2)q-, q is 1, D is 1,3-phenylene, E is-(CH2)r-CH=CH-, r is 0, n is 1]",minimum inhibitory concentration (MIC),[1],>100
same,minimum inhibitory concentration (MIC),[2],0.25
same,minimum inhibitory concentration (MIC),[3],6.2
same,minimum inhibitory concentration (MIC),[5],3.1
same,minimum inhibitory concentration (MIC),[6],32
same,minimum inhibitory concentration (MIC),[7],0.2
same,minimum inhibitory concentration (MIC),[8],3.1
same,minimum inhibitory concentration (MIC),[9],0.2
same,minimum inhibitory concentration (MIC),[10],0.2
same,minimum inhibitory concentration (MIC),[11],32
same,minimum inhibitory concentration (MIC),[12],3.1
same,minimum inhibitory concentration (MIC),[13],3.1
same,minimum inhibitory concentration (MIC),[14],0.12
same,minimum inhibitory concentration (MIC),[15],0.2
same,minimum inhibitory concentration (MIC),[16],0.1
same,minimum inhibitory concentration (MIC),[17],3.1
same,minimum inhibitory concentration (MIC),[18],0.1
same,minimum inhibitory concentration (MIC),[19],>100
same,minimum inhibitory concentration (MIC),[20],>100
same,minimum inhibitory concentration (MIC),[21],>100
same,minimum inhibitory concentration (MIC),[22],12.5
same,minimum inhibitory concentration (MIC),[23],>100
same,minimum inhibitory concentration (MIC),[24],>100
same,minimum inhibitory concentration (MIC),[27],>128
same,minimum inhibitory concentration (MIC),[25],50
same,minimum inhibitory concentration (MIC),[26],0.2
